Patent US20200270309A1, “MALEIMIDE GROUP-MODIFIED ANGIOGENESIS INHIBITOR HM-1 AND USE THEREOF” (NANJING ANJI BIOLOGICAL TECHNOLOGY CO., LTD, priority 2017, published 2020)
Marks after values point to notes of the source that are not given here. Peptide text beside a SMILES is read from it. * marks the point of attachment. X84 = O=C1C=CC(=O)N1c1ccccc1CCCCCCCCCCCCC(=O)*; X60 = O=C1C=CC(=O)N1c1ccccc1CCCCCCCCCC(=O)*; X55 = O=C1C=CC(=O)N1c1ccccc1CCCCCCCCC(=O)*; X63 = O=C1C=CC(=O)N1c1ccccc1CCCCCCC(=O)*

What was measured:
[1] = test system: retinal neovascularization (OIR model); assay: Retinal vessels in OIR mice; format: in vivo, C57/B16 mice; conditions: for Area of neovascular plexus (mm^2): dose 0.05 μM in the vitreous chamber on day 13, retinal vessels evaluated on day 17; for Inhibition rate (%): dose 0.05 μM in the vitreous chamber on day 13, retinal vessels evaluated on day 17, vs negative control
Source text: Establishment of an OIR model: Young mice and their mothers were exposed in a 75% hyperoxic environment from day 7 to day 12 after the birth of C57/B16 mice, which caused capillaries in their central retina to disappear rapidly. The mice were returned to the indoor air on day 12, retinal vessels exposed to hyperoxia quickly disappeared, causing extensive abnormal neoangiogenesis, and the central part of the retina remained largely avascular for a long time. After the blood vessels disappeared completely, the mice were injected with normal saline (a negative group), X1-X12, X13-X44, X45-X90 in the vitreous chamber on day 13 respectively, and retinal vessels were evaluated on day 17 ([…] of Texas red labeled tomato agglutinin was injected into the left ventricle to mark unclosed vessels and circulated for 5 min).

[2] = test system: IL-1β production by mouse peritoneal macrophages; assay: IL-1β production by mouse peritoneal macrophages (ELISA); format: cell-based; conditions: for Inhibition rate: IL-1β production, vs model group; for IL-1β: mouse peritoneal macrophages, 48 h, ELISA
Procedure: Mice were injected intraperitoneally with 1 mL of broth culture medium (containing 6% of starch). Three days later, mice peritoneal macrophages were taken aseptically and washed twice with 1640 culture medium, and the cell concentration was adjusted to 2×10^6 cells/mL. The solutions were injected into 24-well culture plates at 1 mL per well. The cells were incubated in a cell incubator for 3 h and vibrated once every 30 min to make the cells fully adhere to the wall. Then, the cells were washed twice with a culture solution to remove non-adhered cells. PBS was added to the blank group, positive drug Dex was added to the positive group, no drug was added to the model group, and polypeptides X1-X90 with low, medium and high concentrations were added to the test groups; and the cells were continuously cultured for 48 h after administration, and then centrifuged at 1000 r/min for 15 min. The supernatant was collected as a sample to be tested for IL-1β activity.

[3] = test system: corneal neovascularization; assay: Corneal neovascularization induced by alkali burn in BALB/c mice; format: in vivo; parameters: Inhibition rate (corneal neovascularization): concentration or dose not given beside the values; conditions: day 14 after alkali burn, vitreous injection once a day for 1 week
[4] = test system: human retinal capillary endothelial cells (HRCECs); assay: MTT proliferation inhibition on HRCECs; format: cell-based; conditions: 48 h; for A570 nm-A630 nm: mean±SD
Procedure: An MTT method was used to detect the inhibitory activity of the angiogenesis inhibitor polypeptide on proliferation of HRCECs. HRCECs were digested and collected with trypsin after being cultured in an incubator at 37° C. with 5% CO2 to a density of 90% or more. The cells were resuspended with a culture solution and counted under a microscope, the cell concentration was adjusted to 3.0×10^4 cells/mL, and the cell suspension was inoculated into a 96-well plate at 100 μL/well, and cultured overnight in an incubator at 37° C. with 5% CO2. After the cells were completely adhered to the wall, cells with the addition of the angiogenesis inhibitor polypeptide were used as administration groups, cells with the addition of Avastin were used as a positive control group, and cells with the addition of culture solution without any drugs were used as a blank control group. The cells were diluted to respective predetermined concentrations with the culture solution. The diluent were added into 96-well plates respectively at 100 μL per well, and the cells were cultured at 37° C. for 48 h in an incubator with 5% CO2. 20 μL of 5 mg/mL MTT was added into each well of the 96-well plate, and the cultivation was continued for 4 h. The culture medium was removed, and 100 μL of DMSO was added to each well for dissolution. The absorbance was measured at a detection wavelength of 570 nm and a reference wavelength of 630 nm using a microplate reader, and the PIR was calculated by the formula as follows:
PIR (%)=1−administration group/negative group
The experiment was repeated independently three times. The results were expressed as mean±SD, and statistical T test was conducted. *P<0.05 indicates significant difference, and **P<0.01 indicates extremely significant difference.

[5] = test system: retinal vascular endothelial nuclei; assay: Neovascularization in a rat model of premature retinopathy; format: in vivo, rats; conditions: dose 0.05 μM in the vitreous chamber from day 7 of modeling for one week; counted on day 14; oxygen-induced neonatal rats
Procedure: Using a fluctuating oxygen-induced animal model, newborn rats born naturally on the same day (within 12 h) were randomly divide into three groups: an oxygen model group, an oxygen treatment group and a normal control group. The oxygen model was further divided into three sub-group model groups, and the sub-group model groups and the treatment group were all placed in a semi-closed oxygen chamber made of organic glass; medical oxygen was introduced into the chamber, and the concentration was adjusted to 80%±2% by an oxygen meter; nitrogen was introduced into the oxygen chamber after 24 h, and the oxygen concentration was adjusted to 10%±2% rapidly and maintained for 24 h. This was repeated to keep the oxygen concentration in the oxygen chamber alternating between 80% and 10% every 24 h, the oxygen concentration was maintained for 7 d, and then the rats were fed in the air. The oxygen concentration was monitored 8 times a day, and the ambient temperature in the chamber was controlled at 23° C.±2° C. Bedding was replaced, feed was added, and water and mother rats were replaced once. The normal control group was placed in the animal room feeding environment. […] The oxygen treatment group was divided into three subgroups. On day 7 of modeling, X1-[…], […]-[…] and […]-X90 were injected in the vitreous chamber respectively, and the oxygen model group and the control group were only given normal saline for one week. On day 14, after the rats were anesthetized by diethyl ether and killed, eyeballs were extracted and fixed in 40 g/L paraformaldehyde solution for 24 h. Gradient dehydration by alcohol was performed, and the eyeballs were processed by xylene to be transparent. After waxing, the eyeballs were sectioned continuously to a thickness of 4μm, and the periphery of the optic disc should be avoided as much as possible. The sections were parallel to the sagittal plane from cornea to the optic disc. Ten sections of each eyeball were randomly taken and stained with hematoxylin eosin, the number of vascular endothelial nuclei that broke through the inner limiting membrane of the retina (only the number of vascular endothelial nuclei closely related to the inner limiting membrane were counted) was counted, and statistics of the average number of cells per section per eyeball was performed. Results: In the control group, there were no vascular endothelial nuclei that broke through the inner limiting membrane of the retina and grew into vitreous body, or the vascular endothelial nuclei were occasionally found in only a few sections. In the model group, there were many vascular endothelial nuclei that broke through the inner limiting membrane of the retina, some appeared alone, and some appeared in clusters. At the same time, on some sections, these vascular endothelial nuclei were also found adjacent to deep retinal vessels, confirming that they originated from the retina rather than the vitreous body or other ocular tissues. In the treatment group, only a few vascular endothelial nuclei that broke through the inner limiting membrane of retina could be seen in the sections.

Compound | Area of neovascular plexus (mm^2) [1] [mm^2] | Inhibition rate (%) [1] [%*] | Inhibition rate ([2]; dose 0.05 μM) [%] | IL-1β ([2]; dose 0.05 μM) [pg/mL] | Inhibition rate ([2]; dose 0.1 μM) [%] | IL-1β ([2]; dose 0.1 μM) [pg/mL] | Inhibition rate ([2]; dose 0.2 μM) [%] | IL-1β ([2]; dose 0.2 μM) [pg/mL] | Inhibition rate (corneal neovascularization) [3] [%] | MVD (corneal microvessel density) [3] | Inhibition rate (%) ([4]; dose 0.05 μM) [%*] | A570 nm-A630 nm ([4]; dose 0.05 μM) | Inhibition rate (%) ([4]; dose 0.1 μM) [%**] | A570 nm-A630 nm ([4]; dose 0.1 μM) | Inhibition rate (%) ([4]; dose 0.2 μM) [%*] | A570 nm-A630 nm ([4]; dose 0.2 μM) | Nuclei count (retinal vascular endothelial nuclei, average per section per eyeball) [5]
C[C@H](NC(=O)CNC(=O)[C@H](CCCNC(=N)N)NC(=O)CCCCCCCCCCCCc1ccccc1N1C(=O)C=CC1=O)C(=O)N[C@@H](CC(=O)O)C(=O)N[C@@H](CCCNC(=N)N)C(=O)N[C@@H](C)C(=O)NCC(=O)NCC(=O)NCC(=O)NCC(=O)N[C@@H](CCCNC(=N)N)C(=O)NCC(=O)N[C@@H](CC(=O)O)C(=O)O [X24] (X84-RGADRAGGGGRGD-OH) | 0.107 ± 0.012 | 49.53 | 29.88 | 659.97 ± 17.07 | 31.39 | 645.67 ± 11.87 | 41.69 | 548.82 ± 19.58 | 46.24 | 36.15 ± 4.199 | 40.01 | 0.7929 ± 0.02399 | 44.87 | 0.7286 ± 0.00571 | 49.60 | 0.6661 ± 0.02372 | 7.699 ± 3.108
C[C@H](NC(=O)CNC(=O)[C@H](CCCNC(=N)N)NC(=O)CCCCCCc1ccccc1N1C(=O)C=CC1=O)C(=O)N[C@@H](CC(=O)O)C(=O)N[C@@H](CCCNC(=N)N)C(=O)N[C@@H](C)C(=O)NCC(=O)NCC(=O)NCC(=O)NCC(=O)N[C@@H](CCCNC(=N)N)C(=O)NCC(=O)N[C@@H](CC(=O)O)C(=O)O [X18] (X63-RGADRAGGGGRGD-OH) | 0.119 ± 0.011 | 43.87 | 23.36 | 721.31 ± 12.75 | 23.86 | 716.58 ± 16.56 | 27.40 | 683.26 ± 19.63 | 50.18 | 33.50 ± 5.649 | 42.60 | 0.7586 ± 0.05265 | 52.30 | 0.6304 ± 0.03508 | 61.78 | 0.5051 ± 0.08266 | 8.002 ± 3.606
C[C@H](NC(=O)CNC(=O)[C@H](CCCNC(=N)N)NC(=O)CCCCCCCCCc1ccccc1N1C(=O)C=CC1=O)C(=O)N[C@@H](CC(=O)O)C(=O)N[C@@H](CCCNC(=N)N)C(=O)N[C@@H](C)C(=O)NCC(=O)NCC(=O)NCC(=O)NCC(=O)N[C@@H](CCCNC(=N)N)C(=O)NCC(=O)N[C@@H](CC(=O)O)C(=O)O [X21] (X60-RGADRAGGGGRGD-OH) | 0.118 ± 0.012 | 44.34 | 17.80 | 773.58 ± 10.52 | 32.29 | 637.22 ± 12.95 | 44.01 | 526.94 ± 17.75 | 45.93 | 36.36 ± 3.663 | 48.85 | 0.6761 ± 0.01737 | 67.15 | 0.4342 ± 0.04189 | 69.16 | 0.4076 ± 0.06848 | 7.222 ± 3.567
C[C@H](NC(=O)CNC(=O)[C@H](CCCNC(=N)N)NC(=O)CCCCCCCCc1ccccc1N1C(=O)C=CC1=O)C(=O)N[C@@H](CC(=O)O)C(=O)N[C@@H](CCCNC(=N)N)C(=O)N[C@@H](C)C(=O)NCC(=O)NCC(=O)NCC(=O)NCC(=O)N[C@@H](CCCNC(=N)N)C(=O)NCC(=O)N[C@@H](CC(=O)O)C(=O)O [X20] (X55-RGADRAGGGGRGD-OH) | 0.118 ± 0.014 | 44.34 | 17.90 | 772.72 ± 18.78 | 23.02 | 724.50 ± 12.58 | 32.89 | 631.59 ± 19.52 | 44.62 | 37.24 ± 6.113 | 44.28 | 0.7365 ± 0.05032 | 46.12 | 0.7121 ± 0.0349 | 60.14 | 0.5268 ± 0.01299 | 9.374 ± 3.742
